Source: paper PMC7369893, “Antimicrobial Peptides Display Strong Synergy with Vancomycin Against Vancomycin-Resistant E. faecium, S. aureus, and Wild-Type E. coli” (International Journal of Molecular Sciences, 2020)
In brackets after ≈: the same amount, converted by molar mass. Non-standard residues stand in square brackets, D forms with d. Residues, ends and D or L forms follow the SMILES beside them. Dip = N[C@H](C(=O)O)C(c1ccccc1)c1ccccc1; 2Nal = N[C@@H](Cc1ccc2ccccc2c1)C(=O)O

Tests used:
[1] = POPC:POPG (3:1, mol/mol) and POPC:LPS (4:1, mol/mol) LUVs; cited from earlier work
Description: Dathe and coauthors used POPC:LPS as model prokaryotic membranes to study peptide activity against E. coli and the role of LPS [20]. Previously, we have evaluated the membrane-permeability of P-113 and its derivatives by measuring the release of calcein from various phospholipid vesicles such as POPC:POPG (3:1, mol/mol) LUVs (mimic the anionic bacterial membrane) and POPC:LPS (4:1, mol/mol) LUVs (served as surrogates of Gram-negative bacterial membranes that contain LPS). […] Nal- ...

E. coli ATCC 25922 [2] = assay: Time killing assay; format: cell-based, Escherichia coli; details: E. coli ATCC 25922, 5 × 10^5 CFU/mL, 1 × MIC, 0.5-24 h, 37 °C; triplicate
Protocol: (§1) The bactericidal activities of vancomycin, P-113, Phe-P-113, Bip-P-113, Dip-P-113, and Nal-P-113 against E. faecium BCRC 15B0132 (VRE) and E. coli ATCC 25922 were assessed by the time-kill analysis. The cells were grown overnight in TSB or MHB at 37 °C with shaking, and then fresh TSB or MHB was inoculated for growth to mid-logarithmic phase. Bacteria (5 × 10^5 CFU/mL) were treated with 1 × MIC vancomycin, P-113, Phe-P-113, Bip-P-113, Dip-P-113, and Nal-P-113 for 0.5, 1, 2, 4, 6, 10, and 24 h at 37 °C. Bacteria without peptides and vancomycin served as a control. Aliquots were removed at each time points, and 10-fold serial dilutions of the aliquot were plated onto the Müller-Hinton agar. The numbers of CFU were counted after 24 h of incubation at 37 °C. The detection limit for the colony counts was 2log10 CFU/mL.

[3] = tested on: E. faecium BCRC 15B0132 (VRE); assay: Time killing assay; format: cell-based, Enterococcus faecium; details: 5 × 10^5 CFU/mL, 1 × MIC, 0.5-24 h, 37 °C, triplicate
Protocol: as §1

E. coli ATCC 25922 [4] = assay: Uptake of BODIPY-labeled vancomycin, confocal laser scanning microscopy; format: cell-based, Escherichia coli; details: E. coli 10^7 CFU/mL, 0.5 ×MIC peptide 30 min at 37 °C, then BODIPY-labeled vancomycin (2 μg/mL) 30 min; mean fluorescence intensity
Protocol: (§2) The fluorescence experiments were performed with slight modification as described previously. Briefly, the bacteria (10^7 CFU/mL) were incubated with 0.5 ×MIC antimicrobial peptides for 30 min and then treated with BODIPY-labeled vancomycin (2 μg/mL) for 30 min. Samples treated with BODIPY-labeled vancomycin only served as a control. After incubation, bacteria were centrifuged at 8000× g for 5 min, washed three times with PBS to remove unbinding fluorescence dye, and resuspended by PBS. The resuspended solution were loaded on the glass slides (Polysine™, Thermo Fisher Scientific, Waltham, MA, USA) and visualized under confocal laser scanning microscope (LSM 510 META, Carl Zeiss, Jena, Thüringen, Germany) equipped with a 64× oil objective lens (Carl Zeiss, Jena, Thüringen, Germany).

E. coli ATCC 25922 [5] = assay: microbe, parasite or virus in culture; format: cell-based, Escherichia coli; details: ATCC 25922, 16 h
Protocol: (§3) The antibacterial activities of peptides were determined by the standard broth microdilution method according to the guidelines of the Clinical and Laboratory Standards Institute (CLSI). Briefly, E. coli ATCC 25922 were incubated in MHB, and E. faecium BCRC 15B0132, VISA and VRSA strains were incubated in TSB overnight at 37 °C. The cell cultures were regrown to the mid-log phase and subsequently diluted to a final concentration of 5 × 10^5 CFU/mL. The 1 µL peptides or antibiotic were loaded into each well at the final concentration of 64, 32, 16, 8, 4, 2, 1, and 0.5 µg/mL, then loaded 99 µL diluted microbes into each well of polypropylene 96-well plate. After 16 h of incubation at 37 °C, the turbidity at OD600 was measured by the microplate reader. The minimal inhibitory concentration (MIC) value was defined as the lowest concentration of peptide or antibiotic, which inhibited the 90% visible growth of bacteria. All experiments were repeated three times independently.

[6] = tested on: Vancomycin-intermediate S. aureus 03 (VISA03); assay: microbe, parasite or virus in culture; format: cell-based, Staphylococcus aureus; details: Vancomycin-intermediate 03 (VISA03, 16 h)
Protocol: as §3

[7] = tested on: Vancomycin-intermediate S. aureus 01 (VISA01); assay: microbe, parasite or virus in culture; format: cell-based, Staphylococcus aureus; details: Vancomycin-intermediate 01 (VISA01, 16 h)
Protocol: as §3

[8] = tested on: Vancomycin-intermediate S. aureus 02 (VISA02); assay: microbe, parasite or virus in culture; format: cell-based, Staphylococcus aureus; details: Vancomycin-intermediate 02 (VISA02, 16 h)
Protocol: as §3

[9] = tested on: VRE, VISA, VRSA and E. coli strains; assay: Checkerboard assay, summary statements of the text over the strain panel; format: cell-based; details: peptide at ¼ ×MIC combined with vancomycin, all strains studied
Protocol: The synergistic effects of peptides in combination with vancomycin were investigated by checkerboard assay with slight modification. The peptides were fixed concentration at ¼ × MIC, then in combination with antibiotics at various concentrations in each well of 96-well plate. Then the peptide/antibiotic were mixed with inoculum (5 × 10^5 CFU/mL) and incubated at 37 °C for 16 h. The fractional inhibitory concentration (FIC) index was calculated as follows: FIC index = (MIC of drug A in combination/MIC of drug A alone) + (MIC of drug B in combination/MIC of drug B alone). An FIC index of ≤ 0.5 was defined as synergy, indifference was defined as an FIC index of 0.5 < FICI ≤ 4, antagonism was defined as an FIC index of > 4. The experiments were performed in triplicate.

E. faecium BCRC 15B0132 = assay: Uptake of BODIPY-labeled vancomycin, confocal laser scanning microscopy; format: cell-based, Enterococcus faecium; details: VRE 10^7 CFU/mL, 0.5 ×MIC peptide 30 min at 37 °C, then BODIPY-labeled vancomycin (2 μg/mL) 30 min; mean fluorescence intensity
Protocol: as §2

[10] = tested on: Vancomycin-resistant S. aureus 03 (VRSA03); assay: microbe, parasite or virus in culture; format: cell-based, Staphylococcus aureus; details: VRSA03 (induced from VISA03 by serial passage); CLSI broth microdilution, TSB, 5 × 10^5 CFU/mL, 16 h, 37 °C; triplicate
Protocol: (§4) For the purpose of inducing vancomycin-resistant Staphylococcus aureus (VRSA), the VISA01, VISA02, and VISA03 bacteria were incubated overnight in culture medium, and transferring 50 µL of bacteria to 5 mL of fresh medium containing 2 μg/mL of vancomycin then incubated overnight. The bacteria were transferred to new tube with doubling vancomycin concentration and then incubated overnight again. The concentration of vancomycin during serial passage was 2, 4, 8, 16, and 32 µg/mL. The procedure was repeated until meeting the final concentration of 32 µg/mL. After serial passage, the cell resistance was confirmed by using an MIC assay.
as §3

[11] = tested on: Vancomycin-resistant S. aureus 02 (VRSA02); assay: microbe, parasite or virus in culture; format: cell-based, Staphylococcus aureus; details: VRSA02 (induced from VISA02 by serial passage); CLSI broth microdilution, TSB, 5 × 10^5 CFU/mL, 16 h, 37 °C; triplicate
Protocol: as §4, §3

[12] = tested on: Vancomycin-resistant S. aureus 01 (VRSA01); assay: microbe, parasite or virus in culture; format: cell-based, Staphylococcus aureus; details: VRSA01 (induced from VISA01 by serial passage); CLSI broth microdilution, TSB, 5 × 10^5 CFU/mL, 16 h, 37 °C; triplicate
Protocol: as §4, §3

[13] = tested on: VRE, VISA, VRSA, and E. coli strains; assay: microbe, parasite or virus in culture; format: cell-based
Protocol: as §3

[14] = tested on: E. faecium BCRC 15B0132 (VRE); assay: microbe, parasite or virus in culture; format: cell-based, Enterococcus faecium; details: BCRC 15, 16 h
Protocol: as §3

human fibroblasts (HFW) = details: peptide >25 µg/mL; cited from earlier work

Compound | calcein leakage from LUVs [1] | killing kinetics (E. coli ATCC 25922 [2]) | killing kinetics [3] | entry of BODIPY-labeled vancomycin into the bacteria (rank order) (E. coli ATCC 25922 [4]) | MIC (E. coli ATCC 25922 [5]) | MIC [6] | MIC [7] | MIC [8] | synergy with vancomycin (interpretation of FICI) [9] | entry of BODIPY-labeled vancomycin into the bacteria (rank order) (E. faecium BCRC 15B0132) | MIC [10] | MIC [11] | MIC [12] | MICs against these bacterial strains ([13]; 16 h) | MIC [14] | cell death (MTT) (human fibroblasts (HFW)) | MICs against these bacterial strains ([13]; all strains studied (VRE, VISA 01-03, VRSA 01-03, E. coli), Table 2)
CC(=O)N[C@@H](C)C(=O)N[C@@H](CCCCN)C(=O)N[C@@H](CCCNC(=N)N)C(=O)N[C@@H](Cc1ccccc1)C(=O)N[C@@H](Cc1ccccc1)C(=O)NCC(=O)N[C@@H](Cc1ccc(O)cc1)C(=O)N[C@@H](CCCCN)C(=O)N[C@@H](CCCNC(=N)N)C(=O)N[C@@H](CCCCN)C(=O)N[C@@H](Cc1ccccc1)C(=O)N[C@@H](Cc1ccccc1)C(N)=O [Phe-P-113] (Ac-AKRFFGYKRKFF-NH2) | only weak abilities in causing calcein leakage | limited bactericidal activity | slower or limited killing kinetics | Bip-P-113 > Nal-P-113 > Dip-P-113 > Phe-P-113 = P-113 | >64 µg/mL | >64 µg/mL | >64 µg/mL | >64 µg/mL | no synergy | Bip-P-113 = Nal-P-113 > Dip-P-113 > Phe-P-113 = P-113 | >64 µg/mL | >64 µg/mL | >64 µg/mL | > 64 µg/mL | >64 µg/mL |  | 
CC(=O)N[C@@H](C)C(=O)N[C@@H](CCCCN)C(=O)N[C@@H](CCCNC(=N)N)C(=O)N[C@@H](Cc1c[nH]cn1)C(=O)N[C@@H](Cc1c[nH]cn1)C(=O)NCC(=O)N[C@@H](Cc1ccc(O)cc1)C(=O)N[C@@H](CCCCN)C(=O)N[C@@H](CCCNC(=N)N)C(=O)N[C@@H](CCCCN)C(=O)N[C@@H](Cc1ccccc1)C(=O)N[C@@H](Cc1c[nH]cn1)C(N)=O [P-113] (Ac-AKRHHGYKRKFH-NH2) | only weak abilities in causing calcein leakage | limited bactericidal activity | slower or limited killing kinetics | Bip-P-113 > Nal-P-113 > Dip-P-113 > Phe-P-113 = P-113 | >64 µg/mL | >64 µg/mL | >64 µg/mL | >64 µg/mL | no synergy | Bip-P-113 = Nal-P-113 > Dip-P-113 > Phe-P-113 = P-113 | >64 µg/mL | >64 µg/mL | >64 µg/mL | > 64 µg/mL | >64 µg/mL |  | 
CC(=O)N[C@@H](C)C(=O)N[C@@H](CCCCN)C(=O)N[C@@H](CCCNC(=N)N)C(=O)N[C@H](C(=O)N[C@H](C(=O)NCC(=O)N[C@@H](Cc1ccc(O)cc1)C(=O)N[C@@H](CCCCN)C(=O)N[C@@H](CCCNC(=N)N)C(=O)N[C@@H](CCCCN)C(=O)N[C@@H](Cc1ccccc1)C(=O)N[C@H](C(N)=O)C(c1ccccc1)c1ccccc1)C(c1ccccc1)c1ccccc1)C(c1ccccc1)c1ccccc1 [Dip-P-113] (Ac-AKR[Dip][Dip]GYKRKF[Dip]-NH2) | dose-dependent calcein leakage |  | rapid bactericidal activity | Bip-P-113 > Nal-P-113 > Dip-P-113 > Phe-P-113 = P-113 | 64 µg/mL (≈ 34.3 µM) | 16 µg/mL (≈ 8.58 µM) | 16 µg/mL (≈ 8.58 µM) | 16 µg/mL (≈ 8.58 µM) | synergistic effects against VRE, VRSA 02, and E. coli | Bip-P-113 = Nal-P-113 > Dip-P-113 > Phe-P-113 = P-113 | 32 µg/mL (≈ 17.2 µM) | 32 µg/mL (≈ 17.2 µM) | 32 µg/mL (≈ 17.2 µM) |  | 4 µg/mL (≈ 2.15 µM) | 10–20% | 
CC(=O)N[C@@H](C)C(=O)N[C@@H](CCCCN)C(=O)N[C@@H](CCCNC(=N)N)C(=O)N[C@@H](Cc1ccc2ccccc2c1)C(=O)N[C@@H](Cc1ccc2ccccc2c1)C(=O)NCC(=O)N[C@@H](Cc1ccc(O)cc1)C(=O)N[C@@H](CCCCN)C(=O)N[C@@H](CCCNC(=N)N)C(=O)N[C@@H](CCCCN)C(=O)N[C@@H](Cc1ccccc1)C(=O)N[C@@H](Cc1ccc2ccccc2c1)C(N)=O [Nal-P-113] (Ac-AKR[2Nal][2Nal]GYKRKF[2Nal]-NH2) | dose-dependent calcein leakage | fastest bactericidal activity | rapid bactericidal activity | Bip-P-113 > Nal-P-113 > Dip-P-113 > Phe-P-113 = P-113 | 32 µg/mL (≈ 17.9 µM) | 8 µg/mL (≈ 4.48 µM) | 8 µg/mL (≈ 4.48 µM) | 8 µg/mL (≈ 4.48 µM) | synergistic effects against VRE, VISA 03, VRSA 01, VRSA 02, VRSA 03, and E. coli | Bip-P-113 = Nal-P-113 > Dip-P-113 > Phe-P-113 = P-113 | 16 µg/mL (≈ 8.96 µM) | 8 µg/mL (≈ 4.48 µM) | 8 µg/mL (≈ 4.48 µM) |  | 4 µg/mL (≈ 2.24 µM) | 10–20% | best MICs
